Data on one compound can be found in paper PMC10298626 (International Journal of Molecular Sciences, 2023).

In test [1] the test system is ERK. The test is described as follows: LPS-induced phosphorylation of ERK (immunoblotting) in RAW264.7 cells. It is filed as cell-based, Mouse. Conditions: 20, 40, and 80 μM pretreatment 2 h; LPS 500 ng/mL 30 min. As for the experimental part: (§1) RAW264.7 cells were seeded into 6-well plates (2 × 10^6 cells/well) and incubated for 24 h. The cells were incubated with 20, 40, and 80 μM of coumarin derivative 2 for 2 h, and then LPS (500 ng/mL) was added for 30 min (for phosphorylation of ERK, JNK, p38, and p65) and 24 h (for protein expression of iNOS).
(§2) The cells were washed with PBS and lysed with radioimmunoprecipitation assay buffer containing 1 mM dithiothreitol (Wako, Tokyo, Japan), phosphatase inhibitor cocktail, 1 mM phenylmethylsulfonylfluoride, 1 mM sodium orthovanadate (Sigma), and 10 mM β-glycerophosphate (Sigma). The extracted proteins were centrifuged at 13,000× g rpm, separated via sodium dodecyl sulfate polyacrylamide gel electrophoresis, and transferred to polyvinylidene fluoride membranes. Nonspecific proteins were blocked by adding 5% skim milk. After blocking, primary antibodies were incubated overnight at 4 °C. After washing with the PBS-T buffer, the secondary antibodies were treated at room temperature for 2 h. For detection, the antibodies were developed with Super Signal® West Femto Substrate (ThermoFisher, Waltham, MN, USA) and analyzed on a Fusion Solo Chemiluminescence System (Vilber Lourmat, Paris, France) ECL detection system.
(§3) Figure 5 Inhibitory effects of coumarin derivative 2 on LPS-induced phosphorylation of MAPKs and NF-κB p65 in RAW264.7 cells. […]

Test [2] relates to p38. In words: LPS-induced phosphorylation of p38 (immunoblotting) in RAW264.7 cells. The following applies: 20, 40, and 80 μM pretreatment 2 h; LPS 500 ng/mL 30 min. The class given is cell-based, Mouse. As for the experimental part:
as §1, §2, §3

As to `N#CC1=C(N)Oc2c(c(=O)oc3ccccc23)C1c1cccc(F)c1` (centres unmarked) [Coumarin derivative 2], the “Phosphorylation of ERK” value in test [1] is listed as “inhibited”. For the same compound, the “Phosphorylation of p38” value in test [2] was “inhibited”.
